From patent publication US10916331B2, “Predicting drug-target interactions and uses for drug repositioning and repurposing” (GEORGETOWN UNIVERSITY, priority 2015, dated 2021)

Columns and labels:
[1] = target: T1, ABL1(E255K)-phosphorylated (Homo sapiens, UniProt P00519, E255K); test: Kinomescan active site-directed competition binding assay; conditions: MBZ at 10 μM, lower = stronger hit, read-out: Percent Control at 10 μM
T1 construct: purchased Discoverx (Kinomescan); host or cells: E. coli BL21-derived host (T7 phage) or HEK-293
Method: (§1) Kinase assays were performed using Kinomescan, by Discoverx, CA, USA and Caliper LabChip 3000 by Caliper Life sciences, USA as described previously. The determination of MBZ thermodynamic binding affinities (Kd) to kinase targets predicted by RepurposeVS was performed by using active site-directed competition binding. Kinase-tagged T7 phage strains were grown in parallel in 24-well blocks in an E. coli host derived from the BL21 strain. E. coli bacteria were grown to log-phase and infected with T7 phage from a frozen stock (multiplicity of infection=0.4) and incubated with shaking at 32° C. until lysis (90-150 minutes). The lysates were centrifuged (6,000×g) and filtered (0.2 μm sieves) to remove cell debris. The remaining kinases were produced in HEK-293 cells and subsequently tagged with DNA for qPCR detection. […] The liganded beads were blocked with excess biotin and washed with blocking buffer (SeaBlock (Pierce), 1% BSA, 0.05% Tween 20, 1 mM DTT) to remove unbound ligand and to reduce non-specific phage binding. Binding reactions were assembled by combining kinases, control liganded affinity beads, and mebendazole in 1× binding buffer (20% SeaBlock, 0.17×PBS, 0.05% Tween 20, 6 mM DTT). Mebendazole was prepared as 40× stocks in 100% DMSO and directly diluted into the assay. All reactions were performed in polypropylene 384-well plates in a final volume of 0.04 ml. The assay plates were incubated at room temperature with shaking for 1 hour and the affinity beads were washed with wash buffer (lx PBS, 0.05% Tween 20). […] The kinase concentration in the eluates was measured by qPCR. […] The amount of kinase captured in test versus control samples were measured by using a quantitative, precise and ultra-sensitive qPCR method that detects the associated DNA label. Using (13), the primary screen binding interactions are reported as ‘% Ctrl’ (Percent kinase remaining activity), where lower numbers indicate stronger hits. In a similar manner, binding constants (Kd) for mebendazole-kinase interactions are calculated by measuring the amount of kinase captured as a function of the mebendazole concentration in a dose response manner. […] Binding constants (Kd) were calculated with a standard dose-response curve (drug dose (x-axis)−qPCR signal (y-axis)) using the Hill equation in (14) with the Hill Slope set to −1.

[2] = target: T2, ABL1(T315I)-phosphorylated (Homo sapiens, UniProt P00519, T315I); test: as above; conditions: MBZ at 10 μM, lower = stronger hit, read-out: Percent Control at 10 μM
T2 construct: purchased Discoverx (Kinomescan); host or cells: E. coli BL21-derived host (T7 phage) or HEK-293
Method: as §1

[3] = target: T3, ABL1-nonphosphorylated (Homo sapiens, UniProt P00519); test: as above; conditions: MBZ at 10 μM, lower = stronger hit, read-out: Percent Control at 10 μM
T3 construct: purchased Discoverx (Kinomescan); host or cells: E. coli BL21-derived host (T7 phage) or HEK-293
Method: as §1

[4] = target: T4, ABL1-phosphorylated (Homo sapiens, UniProt P00519); test: as above
T4 construct: purchased Discoverx (Kinomescan); host or cells: E. coli BL21-derived host (T7 phage) or HEK-293
Method: as §1

[5] = target: T5, CDK7 (Homo sapiens, UniProt P50613); test: as above
T5 construct: purchased Discoverx (Kinomescan); host or cells: E. coli BL21-derived host (T7 phage) or HEK-293
T5 sequence (P50613 whole entry): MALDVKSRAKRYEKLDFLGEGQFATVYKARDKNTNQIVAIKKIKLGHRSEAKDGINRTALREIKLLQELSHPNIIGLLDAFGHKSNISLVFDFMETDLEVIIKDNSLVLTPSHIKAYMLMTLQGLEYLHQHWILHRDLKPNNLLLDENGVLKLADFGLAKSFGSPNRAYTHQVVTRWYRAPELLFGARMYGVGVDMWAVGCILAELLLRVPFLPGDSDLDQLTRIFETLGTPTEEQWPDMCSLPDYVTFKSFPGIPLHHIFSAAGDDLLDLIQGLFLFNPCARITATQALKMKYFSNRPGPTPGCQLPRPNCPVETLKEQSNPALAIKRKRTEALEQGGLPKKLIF
Method: as §1

[6] = target: T6, CSNK1D (Homo sapiens, UniProt P48730); test: as above; conditions: MBZ at 10 μM, lower = stronger hit, read-out: Percent Control at 10 μM
T6 construct: purchased Discoverx (Kinomescan); host or cells: E. coli BL21-derived host (T7 phage) or HEK-293
Method: as §1

[7] = target: T7, DYRK1A (Homo sapiens, UniProt Q13627); test: as above; conditions: MBZ at 10 μM, lower = stronger hit, read-out: Percent Control at 10 μM
T7 construct: purchased Discoverx (Kinomescan); host or cells: E. coli BL21-derived host (T7 phage) or HEK-293
Method: as §1

[8] = target: T8, DYRK1B (Homo sapiens, UniProt Q9Y463); test: as above
T8 construct: purchased Discoverx (Kinomescan); host or cells: E. coli BL21-derived host (T7 phage) or HEK-293
Method: as §1

[9] = target: T9, GSK3B (Homo sapiens, UniProt P49841); test: as above; conditions: MBZ at 10 μM, lower = stronger hit, read-out: Percent Control at 10 μM
T9 construct: purchased Discoverx (Kinomescan); host or cells: E. coli BL21-derived host (T7 phage) or HEK-293
Method: as §1

[10] = target: T10, JAK3 (Homo sapiens, UniProt P52333); test: as above; conditions: MBZ at 10 μM, lower = stronger hit, read-out: Percent Control at 10 μM
T10 construct: purchased Discoverx (Kinomescan); host or cells: E. coli BL21-derived host (T7 phage) or HEK-293
Method: as §1

[11] = target: T11, JNK1 (Homo sapiens, UniProt P45983); test: as above; conditions: MBZ at 10 μM, lower = stronger hit, read-out: Percent Control at 10 μM
T11 construct: purchased Discoverx (Kinomescan); host or cells: E. coli BL21-derived host (T7 phage) or HEK-293
Method: as §1

[12] = target: T12, JNK2 (Homo sapiens, UniProt P45984); test: as above
T12 construct: purchased Discoverx (Kinomescan); host or cells: E. coli BL21-derived host (T7 phage) or HEK-293
T12 sequence (P45984 whole entry): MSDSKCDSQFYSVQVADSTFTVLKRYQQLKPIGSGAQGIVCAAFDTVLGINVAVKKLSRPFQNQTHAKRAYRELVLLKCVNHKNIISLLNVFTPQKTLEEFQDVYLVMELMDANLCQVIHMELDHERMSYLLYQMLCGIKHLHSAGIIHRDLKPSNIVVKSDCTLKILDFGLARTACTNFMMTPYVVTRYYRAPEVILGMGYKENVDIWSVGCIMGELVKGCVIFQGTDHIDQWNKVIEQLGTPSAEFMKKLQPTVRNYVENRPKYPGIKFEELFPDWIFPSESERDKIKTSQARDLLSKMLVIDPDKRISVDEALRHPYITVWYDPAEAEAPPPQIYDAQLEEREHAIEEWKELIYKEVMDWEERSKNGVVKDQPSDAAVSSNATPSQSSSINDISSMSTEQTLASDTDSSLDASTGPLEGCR
Method: as §1

[13] = target: T13, JNK3 (Homo sapiens, UniProt P53779); test: as above
T13 construct: purchased Discoverx (Kinomescan); host or cells: E. coli BL21-derived host (T7 phage) or HEK-293
T13 sequence (P53779 whole entry): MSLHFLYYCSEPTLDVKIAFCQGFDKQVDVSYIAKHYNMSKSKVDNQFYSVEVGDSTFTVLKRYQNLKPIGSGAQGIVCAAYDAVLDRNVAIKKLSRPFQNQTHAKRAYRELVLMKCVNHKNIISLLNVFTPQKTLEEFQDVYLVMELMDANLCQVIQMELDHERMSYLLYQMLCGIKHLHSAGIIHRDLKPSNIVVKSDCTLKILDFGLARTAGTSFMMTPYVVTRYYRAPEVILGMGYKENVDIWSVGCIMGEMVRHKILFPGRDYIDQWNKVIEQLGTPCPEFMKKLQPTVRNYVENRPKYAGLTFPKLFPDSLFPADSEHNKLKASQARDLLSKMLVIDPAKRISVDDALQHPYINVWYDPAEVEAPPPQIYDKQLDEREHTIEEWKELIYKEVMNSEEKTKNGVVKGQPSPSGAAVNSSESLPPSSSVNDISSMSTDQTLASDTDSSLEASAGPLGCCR
Method: as §1

[14] = target: T14, KIT (D816V) (Homo sapiens, UniProt P10721, D816V); test: as above; conditions: MBZ at 10 μM; listed as 'KIT (D816V)', value in parentheses; read-out: Percent Control at 10 μM
T14 construct: purchased Discoverx (Kinomescan); host or cells: E. coli BL21-derived host (T7 phage) or HEK-293
T14 sequence (P10721 26-976 D816V): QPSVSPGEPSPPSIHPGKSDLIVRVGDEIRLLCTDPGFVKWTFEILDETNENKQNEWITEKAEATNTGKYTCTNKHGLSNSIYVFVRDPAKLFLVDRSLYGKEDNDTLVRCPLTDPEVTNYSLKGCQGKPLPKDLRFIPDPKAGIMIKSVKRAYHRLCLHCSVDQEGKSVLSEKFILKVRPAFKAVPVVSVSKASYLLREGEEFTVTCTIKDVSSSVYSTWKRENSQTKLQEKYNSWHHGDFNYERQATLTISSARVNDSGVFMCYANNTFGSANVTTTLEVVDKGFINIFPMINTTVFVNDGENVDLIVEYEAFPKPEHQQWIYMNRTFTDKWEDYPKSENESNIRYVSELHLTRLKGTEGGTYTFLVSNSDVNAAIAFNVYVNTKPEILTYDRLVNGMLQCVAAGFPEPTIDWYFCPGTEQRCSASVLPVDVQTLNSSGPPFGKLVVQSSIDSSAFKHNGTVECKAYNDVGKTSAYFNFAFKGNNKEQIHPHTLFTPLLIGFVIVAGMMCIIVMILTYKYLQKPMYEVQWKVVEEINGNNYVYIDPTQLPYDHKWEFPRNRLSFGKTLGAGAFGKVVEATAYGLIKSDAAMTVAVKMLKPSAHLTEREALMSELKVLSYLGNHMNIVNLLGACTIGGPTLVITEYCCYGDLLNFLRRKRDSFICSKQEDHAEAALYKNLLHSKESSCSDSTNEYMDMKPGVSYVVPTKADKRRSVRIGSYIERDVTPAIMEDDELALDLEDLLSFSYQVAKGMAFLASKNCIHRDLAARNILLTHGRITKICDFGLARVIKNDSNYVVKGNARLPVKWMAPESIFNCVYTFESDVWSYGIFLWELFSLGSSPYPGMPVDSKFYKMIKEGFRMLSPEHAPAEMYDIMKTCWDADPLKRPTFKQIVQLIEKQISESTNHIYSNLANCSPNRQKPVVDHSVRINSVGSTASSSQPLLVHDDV
Method: as §1

[15] = target: T15, KIT (Homo sapiens, UniProt P10721); test: as above; conditions: listed as 'KIT (D816V)'
T15 construct: purchased Discoverx (Kinomescan); host or cells: E. coli BL21-derived host (T7 phage) or HEK-293
T15 sequence (P10721 26-976): as the sequence (P10721 26-976 D816V) above, with V791D counted along it
Method: as §1

[16] = target: T16, MET (Homo sapiens, UniProt P08581); test: as above; conditions: MBZ at 10 μM, lower = stronger hit, read-out: Percent Control at 10 μM
T16 construct: purchased Discoverx (Kinomescan); host or cells: E. coli BL21-derived host (T7 phage) or HEK-293
Method: as §1

[17] = target: T17, P38-alpha (Homo sapiens, UniProt Q16539); test: as above
T17 construct: purchased Discoverx (Kinomescan); host or cells: E. coli BL21-derived host (T7 phage) or HEK-293
T17 sequence (Q16539 whole entry): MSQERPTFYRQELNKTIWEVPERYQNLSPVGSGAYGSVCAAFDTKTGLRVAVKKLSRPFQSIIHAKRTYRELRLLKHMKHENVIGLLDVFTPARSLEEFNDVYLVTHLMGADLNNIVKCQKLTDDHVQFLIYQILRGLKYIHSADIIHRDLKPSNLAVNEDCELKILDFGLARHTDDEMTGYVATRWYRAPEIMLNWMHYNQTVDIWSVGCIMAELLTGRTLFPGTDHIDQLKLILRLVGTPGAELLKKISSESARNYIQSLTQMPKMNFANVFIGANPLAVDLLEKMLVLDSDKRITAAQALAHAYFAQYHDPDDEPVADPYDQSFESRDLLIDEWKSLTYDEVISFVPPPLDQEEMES
Method: as §1

[18] = target: T18, PDGFR-A (Homo sapiens, UniProt P16234); test: as above
T18 construct: purchased Discoverx (Kinomescan); host or cells: E. coli BL21-derived host (T7 phage) or HEK-293
T18 sequence (P16234 24-1089): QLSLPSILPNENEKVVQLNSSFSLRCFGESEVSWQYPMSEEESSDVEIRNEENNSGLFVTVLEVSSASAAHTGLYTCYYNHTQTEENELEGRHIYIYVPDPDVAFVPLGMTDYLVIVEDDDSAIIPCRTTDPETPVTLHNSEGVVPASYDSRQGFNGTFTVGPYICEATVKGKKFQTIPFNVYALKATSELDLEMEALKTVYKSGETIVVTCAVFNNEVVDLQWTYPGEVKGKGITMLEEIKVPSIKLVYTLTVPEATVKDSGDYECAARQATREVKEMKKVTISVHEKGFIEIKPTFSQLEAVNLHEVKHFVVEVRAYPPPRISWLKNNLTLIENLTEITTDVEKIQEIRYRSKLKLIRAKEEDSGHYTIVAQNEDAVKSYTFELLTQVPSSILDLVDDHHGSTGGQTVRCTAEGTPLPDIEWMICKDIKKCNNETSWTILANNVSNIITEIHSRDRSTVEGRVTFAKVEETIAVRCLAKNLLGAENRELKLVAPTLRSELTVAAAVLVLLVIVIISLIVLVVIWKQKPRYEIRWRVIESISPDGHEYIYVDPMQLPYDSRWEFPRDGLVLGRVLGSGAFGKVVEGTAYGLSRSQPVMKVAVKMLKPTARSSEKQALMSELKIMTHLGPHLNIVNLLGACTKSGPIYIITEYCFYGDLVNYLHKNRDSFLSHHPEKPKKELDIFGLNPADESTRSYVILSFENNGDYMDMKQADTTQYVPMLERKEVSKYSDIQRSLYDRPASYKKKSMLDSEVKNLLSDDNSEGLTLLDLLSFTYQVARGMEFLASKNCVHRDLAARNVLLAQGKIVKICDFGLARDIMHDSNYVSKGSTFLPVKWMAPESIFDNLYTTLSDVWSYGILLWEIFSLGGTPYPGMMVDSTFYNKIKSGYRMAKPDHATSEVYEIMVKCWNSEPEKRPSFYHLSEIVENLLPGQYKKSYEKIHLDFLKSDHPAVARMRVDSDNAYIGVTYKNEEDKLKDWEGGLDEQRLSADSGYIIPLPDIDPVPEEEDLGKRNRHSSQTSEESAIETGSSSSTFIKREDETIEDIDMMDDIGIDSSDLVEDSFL
Method: as §1

[19] = target: T19, PDGFR-B (Homo sapiens, UniProt P09619); test: as above
T19 construct: purchased Discoverx (Kinomescan); host or cells: E. coli BL21-derived host (T7 phage) or HEK-293
Method: as §1

[20] = target: T20, PIK3CG (Homo sapiens, UniProt P48736); test: as above; conditions: MBZ at 10 μM, lower = stronger hit, read-out: Percent Control at 10 μM
T20 construct: purchased Discoverx (Kinomescan); host or cells: E. coli BL21-derived host (T7 phage) or HEK-293
Method: as §1

[21] = target: T21, SRC (Homo sapiens, UniProt P12931); test: as above; conditions: MBZ at 10 μM, lower = stronger hit, read-out: Percent Control at 10 μM
T21 construct: purchased Discoverx (Kinomescan); host or cells: E. coli BL21-derived host (T7 phage) or HEK-293
Method: as §1

[22] = target: T22, ULK2 (Homo sapiens, UniProt Q8IYT8); test: as above; conditions: MBZ at 10 μM, lower = stronger hit, read-out: Percent Control at 10 μM
T22 construct: purchased Discoverx (Kinomescan); host or cells: E. coli BL21-derived host (T7 phage) or HEK-293
Method: as §1

[23] = target: T23, VEGFR-2 (Homo sapiens, UniProt P35968); test: as above
T23 construct: purchased Discoverx (Kinomescan); host or cells: E. coli BL21-derived host (T7 phage) or HEK-293
T23 sequence (P35968 20-1356): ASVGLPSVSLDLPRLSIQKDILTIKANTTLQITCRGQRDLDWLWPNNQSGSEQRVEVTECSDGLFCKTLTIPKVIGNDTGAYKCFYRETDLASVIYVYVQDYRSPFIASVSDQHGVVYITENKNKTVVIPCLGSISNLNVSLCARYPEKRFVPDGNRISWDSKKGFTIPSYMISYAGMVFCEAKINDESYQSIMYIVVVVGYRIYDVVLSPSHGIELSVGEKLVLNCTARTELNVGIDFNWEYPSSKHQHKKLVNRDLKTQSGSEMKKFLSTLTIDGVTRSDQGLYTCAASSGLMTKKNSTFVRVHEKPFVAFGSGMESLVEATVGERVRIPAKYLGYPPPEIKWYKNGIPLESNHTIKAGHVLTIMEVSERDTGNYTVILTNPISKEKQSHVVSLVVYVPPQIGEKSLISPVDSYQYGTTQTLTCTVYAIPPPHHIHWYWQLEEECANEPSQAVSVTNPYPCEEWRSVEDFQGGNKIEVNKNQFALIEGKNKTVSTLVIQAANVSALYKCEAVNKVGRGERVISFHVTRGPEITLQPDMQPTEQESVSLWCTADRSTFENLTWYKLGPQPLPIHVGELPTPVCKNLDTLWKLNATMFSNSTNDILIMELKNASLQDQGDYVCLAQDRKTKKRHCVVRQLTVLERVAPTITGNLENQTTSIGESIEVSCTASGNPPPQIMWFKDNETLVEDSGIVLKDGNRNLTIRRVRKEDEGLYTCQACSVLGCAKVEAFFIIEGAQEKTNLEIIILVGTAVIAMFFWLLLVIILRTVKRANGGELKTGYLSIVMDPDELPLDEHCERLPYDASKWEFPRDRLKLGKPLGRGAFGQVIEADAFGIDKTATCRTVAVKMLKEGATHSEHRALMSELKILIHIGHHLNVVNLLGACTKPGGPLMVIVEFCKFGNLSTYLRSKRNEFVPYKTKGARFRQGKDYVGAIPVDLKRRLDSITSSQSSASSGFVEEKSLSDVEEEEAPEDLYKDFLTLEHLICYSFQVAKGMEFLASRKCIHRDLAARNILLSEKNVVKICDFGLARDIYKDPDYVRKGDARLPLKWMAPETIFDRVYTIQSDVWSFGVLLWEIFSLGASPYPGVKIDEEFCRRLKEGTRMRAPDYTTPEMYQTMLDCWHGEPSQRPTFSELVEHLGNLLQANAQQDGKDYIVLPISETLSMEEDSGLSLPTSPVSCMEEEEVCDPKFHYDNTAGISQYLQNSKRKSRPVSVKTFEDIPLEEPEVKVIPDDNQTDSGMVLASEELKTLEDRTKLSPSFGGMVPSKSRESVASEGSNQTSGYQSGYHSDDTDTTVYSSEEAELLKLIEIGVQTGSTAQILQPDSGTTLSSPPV
Method: Kinase-tagged T7 phage strains were grown in parallel in 24-well blocks in an E. coli host derived from the BL21 strain. […] The remaining kinases were produced in HEK-293 cells and subsequently tagged with DNA for qPCR detection. […] The liganded beads were blocked with excess biotin and washed with blocking buffer (SeaBlock (Pierce), 1% BSA, 0.05% Tween 20, 1 mM DTT) to remove unbound ligand and to reduce non-specific phage binding. […] All reactions were performed in polypropylene 384-well plates in a final volume of 0.04 ml. […] The kinase concentration in the eluates was measured by qPCR.
An 11-point 3-fold serial dilution of each test compound was prepared in 100% DMSO at 100× final test concentration and subsequently diluted to 1× in the assay (final DMSO concentration=1%).

[24] = tested on: hookworm tubulin; conditions: background statement; cited from earlier work
[25] = tested on: mammalian tubulin; conditions: background statement; cited from earlier work
[26] = 11-point dose response, read-out: Binding Affinity (Kd)
[27] = MBZ at 10 μM, lower = stronger hit, read-out: Percent Control at 10 μM

SMILES: COC(=O)Nc1nc2ccc(C(=O)c3ccccc3)cc2[nH]1 [MBZ, mebendazole]
- remaining binding at 10 µM [1]: 2.2%
- remaining binding at 10 µM [2]: 3.2%
- remaining binding at 10 µM [3]: 2%
- Kd [4, 26]: 120 nM
- remaining binding at 10 µM [4, 27]: 0.9%
- Kd [5, 26]: 390 nM
- remaining binding at 10 µM [5, 27]: 11%
- remaining binding at 10 µM [6]: 36%
- remaining binding at 10 µM [7]: 34%
- Kd [8, 26]: 340 nM
- remaining binding at 10 µM [8, 27]: 5.6%
- remaining binding at 10 µM [9]: 35%
- remaining binding at 10 µM [10]: 29%
- remaining binding at 10 µM [11]: 14%
- Kd [12, 26]: 1090 nM
- remaining binding at 10 µM [12, 27]: 9.6%
- Kd [13, 26]: 410 nM
- remaining binding at 10 µM [13, 27]: 3%
- remaining binding at 10 µM [14]: 33%
- remaining binding at 10 µM ([15]; MBZ at 10 μM, value outside parentheses, read-out: Percent Control at 10 μM): 7.4%
- Kd [15, 26]: 750 nM
- remaining binding at 10 µM [16]: 32%
- Kd [17, 26]: 1660 nM
- remaining binding at 10 µM [17, 27]: 17%
- Kd [18, 26]: 820 nM
- remaining binding at 10 µM [18, 27]: 7.8%
- Kd [19, 26]: 660 nM
- remaining binding at 10 µM [19, 27]: 3.2%
- remaining binding at 10 µM [20]: 18%
- remaining binding at 10 µM [21]: 34%
- remaining binding at 10 µM [22]: 30%
- Kd [23, 26]: 3600 nM
- remaining binding at 10 µM [23, 27]: 30%
- inhibition of hookworm tubulin [24]: potent nanomolar inhibition
- potency on mammalian tubulin relative to hookworm tubulin (fold less) [25]: 1000 ×
